From US20110045101A1, “FUNGICIDAL SUBSTITUTED AZOLES” (E.I. Du Pont De Nemours and Company, priority 2009, published 2011)
Marks after values point to notes of the source that are not given here.

Key:
Assay type in all cases: in vivo
Conditions in all cases: 100 = 100% disease control
[1] = test system: Puccinia recondita f. sp. tritici; experiment: Test H: wheat leaf rust, test suspension sprayed after inoculation of wheat seedlings, visual disease rating
Method in brief: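 Wheat seedlings inoculated with P. recondita spores, held 24 h saturated at 20 °C, then 2 days in growth chamber at 20 °C; compound suspension (acetone/water with Trem 014) sprayed to run-off afterwards. Rated visually; 200 ppm (≈500 g/ha) unless marked *, which denotes 40 ppm.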

Botrytis cinerea = experiment: Test C: tomato Botrytis on tomato seedlings, sprayed the day before inoculation, visual disease rating
Method in brief: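 Tomato seedlings were sprayed until run-off with test suspensions in acetone/water (50/50) carrying 250 ppm polyhydric alcohol ester surfactant. Standard dose was 200 ppm, with 40 ppm for marked entries.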

[2] = test system: Puccinia recondita f. sp. tritici; experiment: Test I: wheat leaf rust on wheat seedlings, sprayed the day before inoculation, visual disease rating
Method in brief: (§1)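 200 ppm run-off spray (500 g/ha equivalent); * = 40 ppm. Vehicle: acetone/water 50/50, 250 ppm Trem® 014.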

Septoria tritici = experiment: Test G: wheat leaf blotch on wheat seedlings, sprayed the day before inoculation, visual disease rating
Method in brief: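 Disease was rated visually after Septoria tritici inoculation, 48 h saturated incubation at 24°C and 19 days in a 20°C growth chamber. Inoculation followed one day after run-off spraying of seedlings with compound at 200 ppm (≈500 g/ha) or, where marked, 40 ppm, formulated in acetone/water with surfactant.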

Alternaria solani = experiment: Test D: tomato early blight, sprayed the day before inoculation, visual disease rating
Method in brief: as §1

Septoria nodorum = experiment: Test F: wheat glume blotch on wheat seedlings, sprayed the day before inoculation, visual disease rating
Method in brief: as §1

[3] = test system: Erysiphe graminis f. sp. tritici; experiment: Test J: wheat powdery mildew on wheat seedlings, sprayed the day before inoculation, visual disease rating
Method in brief: as §1

[4] = 200 ppm, 0 = no control relative to controls
[5] = 40 ppm (marked *), 0 = no control

SMILES	Test H disease control rating [1, 4]	Test C disease control rating (Botrytis cinerea; [4])	Test I disease control rating [2, 4]	Test G disease control rating (Septoria tritici; [4])	Test D disease control rating (Alternaria solani; [4])	Test F disease control rating (Septoria nodorum; [4])	Test J disease control rating [3, 4]	also measured
COc1cc(F)c(-c2c(Cl)nc(Br)n2-c2cccc(OC(F)F)c2)c(F)c1 [compound 545]	27%	100%	100%	99%	100%	98%	99%	
COc1ncccc1-n1c(Cl)nc(Cl)c1-c1c(F)cccc1F [compound 616]	0%	100%	98%	99%	0%	0%	99%	
Fc1cc(F)c(-c2c(Cl)nc(Br)n2-c2ccc(OC(F)(F)F)cc2)c(F)c1 [compound 606]	0%	99%	28%	99%	100%	0%	100%	
Fc1cc(F)c(-c2c(Cl)ncn2-c2ccc(OC(F)(F)F)cc2)c(F)c1 [compound 587]	7%	25%	0%	97%	80%	0%	97%	
Fc1ccc(F)c(-c2c(Br)nc(Cl)n2-c2ccc(Cl)cc2)c1F [compound 351]	54%	100%	100%	93%	100%	99%	100%	
Cc1ccc(-n2cnc(Br)c2-c2c(F)ccc(F)c2Cl)cc1 [compound 410]	0%	98%	99%	100%	99%	0%	100%	
COc1cc(F)c(-n2c(Br)nc(C)c2-c2ccc(C)cc2)c(F)c1 [compound 525]								Test H disease control rating ([1]; 40 ppm (marked *)): 68* %; Test C disease control rating (Botrytis cinerea; 40 ppm (marked *)): 100* %; Test I disease control rating ([2]; 40 ppm (marked *)): 100* %; Test G disease control rating (Septoria tritici; 40 ppm (marked *)): 98* %; Test D disease control rating (Alternaria solani; 40 ppm (marked *)): 100* %; Test F disease control rating (Septoria nodorum; 40 ppm (marked *)): 80* %; Test J disease control rating ([3]; 40 ppm (marked *)): 98* %
Fc1ccc(-n2cnc(Br)c2-c2c(F)cc(F)cc2F)cc1 [compound 507]	0%	100%	100%	88%	95%	0%	98%	
Fc1cccc(-n2cnc(Cl)c2-c2c(F)ccc(Br)c2F)c1 [compound 623]	0%	98%	98%	97%	33%	0%	100%	
COc1ccc(F)c(-c2c(Br)nc(Br)n2-c2ccc(F)cc2)c1F [Compound 504, 2,4-dibromo-5-(2,6-difluoro-3-methoxyphenyl)-1-(4-fluorophenyl)-1H-imidazole]								pest or weed control at 200 ppm ([1]; Puccinia recondita, 96 h, 200 ppm, 0 = no control relative to controls): 0%; pest or weed control at 200 ppm (Botrytis cinerea; Botrytis cinerea, 120 h, 200 ppm, 0 = no control relative to controls): 99%; pest or weed control at 200 ppm ([2]; Puccinia recondita, 168 h, 200 ppm, 0 = no control relative to controls): 99%; pest or weed control at 200 ppm (Septoria tritici; Zymoseptoria tritici, 504 h, 200 ppm, 0 = no control relative to controls): 97%; pest or weed control at 200 ppm (Alternaria solani; Alternaria solani, 168 h, 200 ppm, 0 = no control relative to controls): 100%; pest or weed control at 200 ppm (Septoria nodorum; Parastagonospora nodorum, 264 h, 200 ppm, 0 = no control relative to controls): 100%; pest or weed control at 200 ppm ([3]; Blumeria graminis, 168 h, 200 ppm, 0 = no control relative to controls): 100%
COc1cc(F)c(-c2c(Cl)nc(Cl)n2-c2ccc(C)c(C#N)c2)c(F)c1 [compound 572]								Test H disease control rating ([1]; 40 ppm (marked *)): 0* %; Test C disease control rating (Botrytis cinerea; 40 ppm (marked *)): 100* %; Test I disease control rating ([2]; 40 ppm (marked *)): 99* %; Test G disease control rating (Septoria tritici; 40 ppm (marked *)): 95* %; Test D disease control rating (Alternaria solani; 40 ppm (marked *)): 99* %; Test F disease control rating (Septoria nodorum; 40 ppm (marked *)): 92* %; Test J disease control rating ([3]; 40 ppm (marked *)): 71* %
Cc1nc(C)n(-c2c(F)cc(F)cc2F)c1-c1ccc(Cl)cc1 [compound 308]								Test H disease control rating [1, 5]: 11* %; Test C disease control rating (Botrytis cinerea; [5]): 99* %; Test I disease control rating [2, 5]: 41* %; Test G disease control rating (Septoria tritici; [5]): 88* %; Test D disease control rating (Alternaria solani; [5]): 100* %; Test F disease control rating (Septoria nodorum; [5]): 0* %; Test J disease control rating [3, 5]: 0* %
COc1cc(F)c(-c2c(Cl)ncn2-c2ccc(F)c(F)c2)c(F)c1 [compound 498]	0%	99%	100%	95%	100%	95%	100%	
CCc1nc(C)n(-c2ccc(Cl)cc2)c1-c1c(F)cccc1F [compound 305]								Test H disease control rating [1, 5]: 11* %; Test C disease control rating (Botrytis cinerea; [5]): 63* %; Test I disease control rating [2, 5]: 0* %; Test G disease control rating (Septoria tritici; [5]): 23* %; Test D disease control rating (Alternaria solani; [5]): 0* %; Test F disease control rating (Septoria nodorum; [5]): 0* %; Test J disease control rating [3, 5]: 0* %
CN(C)c1ncn(Cc2cccc(Cl)c2)c1-c1ccc(Cl)cc1 [compound 273]								Test H disease control rating ([1]; 200 ppm, 0 = no control): 46%; Test C disease control rating (Botrytis cinerea; 200 ppm, 0 = no control): 63%; Test I disease control rating ([2]; 200 ppm, 0 = no control): 41%; Test G disease control rating (Septoria tritici; 200 ppm, 0 = no control): 13%; Test D disease control rating (Alternaria solani; 200 ppm, 0 = no control): 0%; Test F disease control rating (Septoria nodorum; 200 ppm, 0 = no control): 0%; Test J disease control rating ([3]; 200 ppm, 0 = no control): 0%
Cc1nc(Cl)n(-c2ccc(Cl)cc2)c1-c1c(F)ccc(F)c1F [compound 412]								Test H disease control rating [1, 5]: 0* %; Test C disease control rating (Botrytis cinerea; [5]): 100* %; Test I disease control rating [2, 5]: 74* %; Test G disease control rating (Septoria tritici; [5]): 99* %; Test D disease control rating (Alternaria solani; [5]): 100* %; Test F disease control rating (Septoria nodorum; [5]): 0* %; Test J disease control rating [3, 5]: 99* %
